Measurements published in patent US7138361B2, “Herbicidal heterocycles” (E. I. du Pont de Nemours and Company, priority 2000, dated 2006).

Experiments:
Format in all cases: in vivo
corn (Zea mays) = experiment: Test B preemergence
How it was run: (§1)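 Preemergence: seeds planted and treated with test chemicals in non-phytotoxic solvent with surfactant; postemergence on plants 2–18 cm (1- to 4-leaf stage). Kept in greenhouse 13–15 days, then visually rated against controls on a 0 (no effect) to 100 (complete control) scale.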

[1] = tested on: lambsquarters (Chenopodium album); experiment: Test B preemergence
How it was run: as §1

[2] = tested on: barnyardgrass (Echinochloa crus-galli); experiment: Test B preemergence
How it was run: as §1

[3] = tested on: crabgrass (Digitaria sanguinalis); experiment: Test B preemergence
How it was run: as §1

[4] = tested on: velvetleaf (Abutilon theophrasti); experiment: Test B preemergence
How it was run: as §1

[5] = tested on: cocklebur (Xanthium strumarium); experiment: Test B preemergence
How it was run: as §1

[6] = tested on: morning glory (Ipomoea hederacea); experiment: Test B preemergence
How it was run: as §1

[7] = tested on: giant foxtail (Setaria faberii); experiment: Test B preemergence
How it was run: as §1

rice (Oryza saliva) [8] = experiment: Test B preemergence
How it was run: as §1

[9] = tested on: Surinam grass (Brachiaria decumbens); experiment: Test B preemergence
How it was run: as §1

[10] = tested on: pigweed (Amaranthus retroflexus); experiment: Test B preemergence
How it was run: as §1

Nightshade = experiment: Test C preemergence; settings: Rate 500 g/ha, visual evaluation after 12 to 14 days
Sunflower [11] = experiment: Test C preemergence; settings: Rate 500 g/ha, visual evaluation after 12 to 14 days
Sunflower [12] = experiment: Test C preemergence; settings: Rate 62 g/ha, scale 0 to 100
[13] = tested on: smallflower flatsedge (Cyperus difformis); experiment: Test C flooded paddy test; settings: for Flatsedge plant response rating: Flooded Paddy, scale 0 to 100, 0 no effect, 100 complete control
How it was run: (§2)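 Response on a 0-to-100 scale (no effect to complete control) was assessed by eye versus controls. Plants had reached 2 leaves when treated in flooded paddy conditions. The assessment took place after 12–14 days of greenhouse growth.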

[14] = tested on: barnyardgrass (Echinochloa crus-galli); experiment: Test C flooded paddy test; settings: for Barnyardgrass plant response rating: Flooded Paddy, scale 0 to 100, 0 no effect, 100 complete control
How it was run: as §2

rice (Oryza saliva) [15] = experiment: Test C flooded paddy test
How it was run: as §2

[16] = tested on: duck salad (Heteranthera limosa); experiment: Test C flooded paddy test; settings: for Ducksalad plant response rating: Flooded Paddy, scale 0 to 100, 0 no effect, 100 complete control
How it was run: as §2

[17] = tested on: blackgrass (Alopecurus myosuroides); experiment: Test B postemergence
How it was run: as §1

[18] = tested on: crabgrass (Digitaria sanguinalis); experiment: Test B postemergence; settings: Rate 125 g/ha, scale 0 to 100, 0 no effect, 100 complete control
How it was run: as §1

[19] = tested on: cocklebur (Xanthium strumarium); experiment: Test B postemergence
How it was run: as §1

[20] = tested on: wheat (Triticum aestivum); experiment: Test B postemergence; settings: Rate 125 g/ha, scale 0 to 100, 0 no effect, 100 complete control
How it was run: as §1

[21] = tested on: giant foxtail (Setaria faberii); experiment: Test B postemergence; settings: Rate 125 g/ha, scale 0 to 100, 0 no effect, 100 complete control
How it was run: as §1

wild oat (Avena fatua) = experiment: Test B postemergence; settings: Rate 125 g/ha, scale 0 to 100, 0 no effect, 100 complete control
How it was run: as §1

[22] = tested on: pigweed (Amaranthus retroflexus); experiment: Test B postemergence; settings: Rate 125 g/ha, scale 0 to 100, 0 no effect, 100 complete control
How it was run: as §1

Sunflower [23] = experiment: Test C preemergence; settings: Rate 250 g/ha, scale 0 to 100, 0 no effect, 100 complete control
[24] = Preemergence, Rate 500 g/ha, scale 0 to 100, 0 no effect, 100 complete control
[25] = preemergence, Rate 125 g/ha, scale of 0 to 100 where 0 is no effect and 100 is complete control, 13 to 15 days
[26] = flooded paddy test, Rate 125 g/ha, scale 0 to 100 (0 no effect, 100 complete control)
[27] = flooded paddy test, Rate 16 g/ha, visually evaluated after 12 to 14 days, 0 = no effect, 100 = complete control
[28] = flooded paddy test, Rate 62 g/ha, visually evaluated after 12 to 14 days, 0 = no effect, 100 = complete control
[29] = flooded paddy test, under head Rate 16 g/ha, (own rate not given), after 12 to 14 days
[30] = Rate 125 g/ha, scale 0 to 100, 0 no effect, 100 complete control
[31] = Rate 500 g/ha, scale 0 to 100, 0 is no effect, 100 is complete control, 13 to 15 days

SMILES: CCOc1cccc(N2CCC(n3ccc(C(C)(C)C)n3)C2=O)c1 (stereo not shown) [Compound 130]
- Plant response rating, Corn (corn (Zea mays); [24]): 70
- Plant response rating, Corn (corn (Zea mays); [25]): 50
- Plant response rating, Lambsquarters [1, 24]: 100
- Plant response rating, Lambsquarters [1, 25]: 100
- Plant response rating, Barnyardgrass [2, 24]: 100
- Plant response rating, Barnyardgrass [2, 25]: 100
- Plant response rating, Crabgrass [3, 24]: 100
- Plant response rating, Crabgrass [3, 25]: 100
- Plant response rating, Velvetleaf [4, 24]: 50
- Plant response rating, Velvetleaf [4, 25]: 0
- Plant response rating, Cocklebur [5, 24]: 50
- Plant response rating, Cocklebur [5, 25]: 0
- Plant response rating, Morningglory [6, 24]: 100
- Plant response rating, Morningglory [6, 25]: 50
- Plant response rating, Foxtail, Giant [7, 24]: 100
- Plant response rating, Foxtail, Giant [7, 25]: 100
- Plant response rating, Rice (rice (Oryza saliva) [8]; [24]): 100
- Plant response rating, Rice (rice (Oryza saliva) [8]; [25]): 100
- Plant response rating, Surinam grass [9, 24]: 100
- Plant response rating, Surinam grass [9, 25]: 100
- Plant response rating, Pigweed [10, 24]: 100
- Plant response rating, Pigweed [10, 25]: 100
- Plant response rating (0 to 100), Nightshade (Nightshade): 100
- Plant response rating (0 to 100), Sunflower (Sunflower [11]): 70
- Plant response rating, Sunflower (Sunflower [12]): 60
- Flatsedge plant response rating ([13]; Rate 250 g/ha): 90
- Flatsedge plant response rating ([13]; Rate 500 g/ha): 90
- Plant response rating, Flatsedge [13, 26]: 100
- Plant response rating (scale 0 to 100), Flatsedge [13, 27]: 100
- Plant response rating (scale 0 to 100), Flatsedge [13, 28]: 90
- Plant response rating (scale 0 to 100), Flatsedge [13, 29]: 90
- Barnyardgrass plant response rating ([14]; Rate 250 g/ha): 100
- Barnyardgrass plant response rating ([14]; Rate 500 g/ha): 100
- Plant response rating, Barnyardgrass [14, 26]: 100
- Plant response rating (scale 0 to 100), Barnyardgrass [14, 27]: 70
- Plant response rating (scale 0 to 100), Barnyardgrass [14, 28]: 90
- Plant response rating (scale 0 to 100), Barnyardgrass [14, 29]: 50
- Rice plant response rating (rice (Oryza saliva) [15]; Flooded Paddy, Rate 250 g/ha, scale 0 to 100, 0 no effect, 100 complete control): 80
- Plant response rating, Rice (rice (Oryza saliva) [15]; [26]): 20
- Plant response rating (scale 0 to 100), Rice (rice (Oryza saliva) [15]; [27]): 0
- Plant response rating (scale 0 to 100), Rice (rice (Oryza saliva) [15]; [28]): 50
- Plant response rating (scale 0 to 100), Rice (rice (Oryza saliva) [15]; [29]): 0
- Ducksalad plant response rating ([16]; Rate 250 g/ha): 90
- Ducksalad plant response rating ([16]; Rate 500 g/ha): 100
- Plant response rating, Ducksalad [16, 26]: 90
- Plant response rating (scale 0 to 100), Ducksalad [16, 27]: 70
- Plant response rating (scale 0 to 100), Ducksalad [16, 28]: 90
- Plant response rating (scale 0 to 100), Ducksalad [16, 29]: 20
- Plant response rating, Blackgrass [17, 30]: 0
- Plant response rating, Blackgrass [17, 31]: 20
- Plant response rating, Crabgrass [18]: 0
- Plant response rating, Cocklebur [19, 30]: 20
- Plant response rating, Cocklebur [19, 31]: 50
- Plant response rating, Wheat [20]: 0
- Plant response rating, Foxtail, Giant [21]: 0
- Plant response rating, Wild Oat (wild oat (Avena fatua)): 0
- Plant response rating, Pigweed [22]: 80
- Plant response rating, Sunflower (Sunflower [23]): 70
